What was measured:
CD73 [1] = target: T1, CD73 (Homo sapiens (Human), UniProt P21589); assay type: biochemical; settings: 1 mM NaH2PO4 in enzyme buffer, CD73 0.3 nM, AMP 15 uM
CD73 [2] = target: T1, CD73; assay: MDA-MB-231 Cell Based CD73 Activity Assay (DMEM); settings: MDA-MB-231-GFP cells, DMEM medium with 10% human plasma, 200 uM AMP

T1 sequence (P21589 27-574): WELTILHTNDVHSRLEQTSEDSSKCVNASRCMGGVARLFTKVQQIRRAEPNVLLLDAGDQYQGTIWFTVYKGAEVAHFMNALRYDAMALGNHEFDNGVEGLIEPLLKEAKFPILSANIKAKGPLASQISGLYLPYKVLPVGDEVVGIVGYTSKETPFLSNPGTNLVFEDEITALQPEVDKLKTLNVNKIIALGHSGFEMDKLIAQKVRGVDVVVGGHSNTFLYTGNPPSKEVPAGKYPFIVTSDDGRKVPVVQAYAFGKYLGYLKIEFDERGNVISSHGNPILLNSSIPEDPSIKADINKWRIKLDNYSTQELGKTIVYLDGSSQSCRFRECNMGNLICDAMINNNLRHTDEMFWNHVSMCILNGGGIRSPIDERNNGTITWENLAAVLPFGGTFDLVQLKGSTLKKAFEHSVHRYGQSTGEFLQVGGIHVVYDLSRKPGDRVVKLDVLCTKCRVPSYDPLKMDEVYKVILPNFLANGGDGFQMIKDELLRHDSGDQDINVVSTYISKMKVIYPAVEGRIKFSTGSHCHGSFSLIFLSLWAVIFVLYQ

Row | Compound | IC50 (CD73 [1]) [nM] | EC50 (CD73 [2]) [nM]
1 | C[C@@H]1CN(c2cc(-c3c[nH]c(=O)[nH]c3=O)nn3c(F)cnc23)CC1(F)F [Example 519, (R)-5-(8-(3,3-difluoro-4-methylpyrrolidin-1-yl)-3-fluoroimidazo[1,2-b]pyridazin-6-yl)pyrimidine-2,4(1H,3H)-dione] | 6.58 | 18.3
2 | C[C@H]1CN(c2cc(-c3c[nH]c(=O)[nH]c3=O)nn3c(Cl)cnc23)CC1(F)F [Example 520, (S)-5-(3-chloro-8-(3,3-difluoro-4-methylpyrrolidin-1-yl)imidazo[1,2-b]pyridazin-6-yl)pyrimidine-2,4(1H,3H)-dione] | 43.8 | 421
3 | C[C@@H]1CN(c2cc(-c3c[nH]c(=O)[nH]c3=O)nn3c(Cl)cnc23)CC1(F)F [Example 521, (R)-5-(3-chloro-8-(3,3-difluoro-4-methylpyrrolidin-1-yl)imidazo[1,2-b]pyridazin-6-yl)pyrimidine-2,4(1H,3H)-dione] | 33.3 | 223
4 | CC1(C)CN(c2cc(-c3c[nH]c(=O)[nH]c3=O)nn3c(Cl)cnc23)CC1(F)F [Example 522, 5-(3-chloro-8-(3,3-difluoro-4,4-dimethylpyrrolidin-1-yl)imidazo[1,2-b]pyridazin-6-yl)pyrimidine-2,4(1H,3H)-dione] | 1.26 | 23.6
5 | O=c1[nH]cc(-c2cc(N3CC(Oc4ccc(C(F)(F)F)cn4)C(F)(F)C3)c3nccn3n2)c(=O)[nH]1 (stereo not shown) [Example 523, 5-(8-(3,3-difluoro-4-((5-(trifluoromethyl)pyridin-2-yl)oxy)pyrrolidin-1-yl)imidazo[1,2-b]pyridazin-6-yl)pyrimidine-2,4(1H,3H)-dione] | 1.92 | 3.96
6 | O=c1[nH]cc(-c2cc(N3CC(OCC(F)F)C(F)(F)C3)c3nccn3n2)c(=O)[nH]1 (stereo not shown) [Example 524, 5-(8-(4-(2,2-difluoroethoxy)-3,3-difluoropyrrolidin-1-yl)imidazo[1,2-b]pyridazin-6-yl)pyrimidine-2,4(1H,3H)-dione] | 3.75 | 11
7 | CCOC(=O)OC1CN(c2cc(-c3c[nH]c(=O)[nH]c3=O)nn3ccnc23)CC1(F)F (stereo not shown) [Example 525, 1-(6-(2,4-dioxo-1,2,3,4-tetrahydropyrimidin-5-yl)imidazo[1,2-b]pyridazin-8-yl)-4,4-difluoropyrrolidin-3-yl ethyl carbonate] | 1.54 | 4.43
8 | CCNC(=O)OC1CN(c2cc(-c3c[nH]c(=O)[nH]c3=O)nn3ccnc23)CC1(F)F (stereo not shown) [Example 526, 1-(6-(2,4-dioxo-1,2,3,4-tetrahydropyrimidin-5-yl)imidazo[1,2-b]pyridazin-8-yl)-4,4-difluoropyrrolidin-3-yl ethylcarbamate] | 1.32 | 1.13
9 | O=c1[nH]cc(-c2cc(N3C[C@H](Oc4ccc(C(F)(F)F)cn4)C(F)(F)C3)c3nccn3n2)c(=O)[nH]1 [Example 529, (S)-5-(8-(3,3-difluoro-4-((5-(trifluoromethyl)pyridin-2-yl)oxy)pyrrolidin-1-yl)imidazo[1,2-b]pyridazin-6-yl)pyrimidine-2,4(1H,3H)-dione] | 0.7 | 2.25
10 | O=c1[nH]cc(-c2cc(N3C[C@@H](Oc4ccc(C(F)(F)F)cn4)C(F)(F)C3)c3nccn3n2)c(=O)[nH]1 [Example 530, (R)-5-(8-(3,3-difluoro-4-((5-(trifluoromethyl)pyridin-2-yl)oxy)pyrrolidin-1-yl)imidazo[1,2-b]pyridazin-6-yl)pyrimidine-2,4(1H,3H)-dione] | 12.4 | 50.8
11 | O=c1[nH]cc(-c2cc(N3C[C@H](Oc4ncc(C(F)(F)F)cn4)C(F)(F)C3)c3nccn3n2)c(=O)[nH]1 [Example 531, (S)-5-(8-(3,3-difluoro-4-((5-(trifluoromethyl)pyrimidin-2-yl)oxy)pyrrolidin-1-yl)imidazo[1,2-b]pyridazin-6-yl)pyrimidine-2,4(1H,3H)-dione] | 1.34 | 11.4
12 | O=c1[nH]cc(-c2cc(N3C[C@@H](Oc4ncc(C(F)(F)F)cn4)C(F)(F)C3)c3nccn3n2)c(=O)[nH]1 [Example 532, (R)-5-(8-(3,3-difluoro-4-((5-(trifluoromethyl)pyrimidin-2-yl)oxy)pyrrolidin-1-yl)imidazo[1,2-b]pyridazin-6-yl)pyrimidine-2,4(1H,3H)-dione] | 4.42 | 21.5
13 | CC(C)NC(=O)O[C@H]1CN(c2cc(-c3c[nH]c(=O)[nH]c3=O)nn3ccnc23)CC1(F)F [Example 533, (S)-1-(6-(2,4-dioxo-1,2,3,4-tetrahydropyrimidin-5-yl)imidazo[1,2-b]pyridazin-8-yl)-4,4-difluoropyrrolidin-3-yl isopropylcarbamate] | 0.78 | 0.17

Second part, the compound after the results:

Row | IC50 (CD73 [1]) [nM] | EC50 (CD73 [2]) [nM] | Compound
14 | 9.8 | 5.18 | CC(C)NC(=O)O[C@@H]1CN(c2cc(-c3c[nH]c(=O)[nH]c3=O)nn3ccnc23)CC1(F)F [Example 534, (R)-1-(6-(2,4-dioxo-1,2,3,4-tetrahydropyrimidin-5-yl)imidazo[1,2-b]pyridazin-8-yl)-4,4-difluoropyrrolidin-3-yl isopropylcarbamate]
15 | 1.63 | 0.71 | O=C(NCC(F)(F)F)OC1CN(c2cc(-c3c[nH]c(=O)[nH]c3=O)nn3ccnc23)CC1(F)F (stereo not shown) [Example 535, 1-(6-(2,4-dioxo-1,2,3,4-tetrahydropyrimidin-5-yl)imidazo[1,2-b]pyridazin-8-yl)-4,4-difluoropyrrolidin-3-yl (2,2,2-trifluoroethyl)carbamate]
16 | 3.83 | 5.05 | O=C(OC1CN(c2cc(-c3c[nH]c(=O)[nH]c3=O)nn3ccnc23)CC1(F)F)N1CC(F)(F)C1 (stereo not shown) [Example 536, 1-(6-(2,4-dioxo-1,2,3,4-tetrahydropyrimidin-5-yl)imidazo[1,2-b]pyridazin-8-yl)-4,4-difluoropyrrolidin-3-yl 3,3-difluoroazetidine-1-carboxylate]
17 | 0.42 | 2.09 | O=c1[nH]cc(-c2cc(N3C[C@H](Oc4ccccn4)C(F)(F)C3)c3nccn3n2)c(=O)[nH]1 [Example 537, (S)-5-(8-(3,3-difluoro-4-(pyridin-2-yloxy)pyrrolidin-1-yl)imidazo[1,2-b]pyridazin-6-yl)pyrimidine-2,4(1H,3H)-dione]
18 | 11.5 | 48.9 | O=c1[nH]cc(-c2cc(N3C[C@@H](Oc4ccccn4)C(F)(F)C3)c3nccn3n2)c(=O)[nH]1 [Example 538, (R)-5-(8-(3,3-difluoro-4-(pyridin-2-yloxy)pyrrolidin-1-yl)imidazo[1,2-b]pyridazin-6-yl)pyrimidine-2,4(1H,3H)-dione]
19 | 0.55 | 36.3 | O=C(OCC(F)(F)F)O[C@H]1CN(c2cc(-c3c[nH]c(=O)[nH]c3=O)nn3ccnc23)CC1(F)F [Example 541, (S)-1-(6-(2,4-dioxo-1,2,3,4-tetrahydropyrimidin-5-yl)imidazo[1,2-b]pyridazin-8-yl)-4,4-difluoropyrrolidin-3-yl (2,2,2-trifluoroethyl) carbonate]
20 | 1.43 | 17.4 | O=C(OCC(F)(F)F)O[C@@H]1CN(c2cc(-c3c[nH]c(=O)[nH]c3=O)nn3ccnc23)CC1(F)F [Example 543, (R)-1-(6-(2,4-dioxo-1,2,3,4-tetrahydropyrimidin-5-yl)imidazo[1,2-b]pyridazin-8-yl)-4,4-difluoropyrrolidin-3-yl (2,2,2-trifluoroethyl) carbonate]

— patent publication US20240043427A1 (Gilead Sciences, Inc., priority 2020, published 2024)
